Results from publication PMC4742142, “Identification of novel, in vivo active Chk1 inhibitors utilizing structure guided drug design” (Oncotarget, 2015).

Legend:
[1] = test system: A549; assay: Potentiation assay (MTS, 72 hours); type: cell-based, human; conditions: IC50(cytotoxic agent alone) / IC50(combination treatment)
Experimental: (§1) 5 × 10^3 cells per well were seeded in 96-well plates and incubated overnight. […] The effect on cell proliferation was determined using a CellTiter 96 AQueous One Solution Cell Proliferation Assay (MTS, Promega).

[2] = test system: Colo205; assay: Potentiation assay (MTS, 72 hours); type: cell-based, human; conditions: IC50(cytotoxic agent alone) / IC50(combination treatment)
Experimental: as §1

[3] = test system: H460; assay: Potentiation assay (MTS, 72 hours); type: cell-based, human; conditions: IC50(cytotoxic agent alone) / IC50(combination treatment)
Experimental: as §1

[4] = test system: HCT116; assay: Potentiation assay (MTS, 72 hours); type: cell-based, human; conditions: IC50(cytotoxic agent alone) / IC50(combination treatment)
Experimental: as §1

[5] = test system: HT29; assay: Potentiation assay (MTS, 72 hours); type: cell-based, human; conditions: IC50(cytotoxic agent alone) / IC50(combination treatment)
Experimental: as §1

[6] = test system: NCI-H520; assay: Potentiation assay (MTS, 72 hours); type: cell-based, human; conditions: IC50(cytotoxic agent alone) / IC50(combination treatment)
Experimental: as §1

[7] = test system: PC3; assay: Potentiation assay (MTS, 72 hours); type: cell-based, human; conditions: IC50(cytotoxic agent alone) / IC50(combination treatment)
Experimental: as §1

[8] = test system: SW620; assay: Potentiation assay (MTS, 72 hours); type: cell-based, human; conditions: IC50(cytotoxic agent alone) / IC50(combination treatment)
Experimental: as §1

[9] = molecular target: T1, Chk1 (Homo sapiens, UniProt O14757); assay: In vitro kinase assay, Chk1; type: biochemical; conditions: for LE: ligand efficiency, Chk1
T1 sequence (O14757 1-476): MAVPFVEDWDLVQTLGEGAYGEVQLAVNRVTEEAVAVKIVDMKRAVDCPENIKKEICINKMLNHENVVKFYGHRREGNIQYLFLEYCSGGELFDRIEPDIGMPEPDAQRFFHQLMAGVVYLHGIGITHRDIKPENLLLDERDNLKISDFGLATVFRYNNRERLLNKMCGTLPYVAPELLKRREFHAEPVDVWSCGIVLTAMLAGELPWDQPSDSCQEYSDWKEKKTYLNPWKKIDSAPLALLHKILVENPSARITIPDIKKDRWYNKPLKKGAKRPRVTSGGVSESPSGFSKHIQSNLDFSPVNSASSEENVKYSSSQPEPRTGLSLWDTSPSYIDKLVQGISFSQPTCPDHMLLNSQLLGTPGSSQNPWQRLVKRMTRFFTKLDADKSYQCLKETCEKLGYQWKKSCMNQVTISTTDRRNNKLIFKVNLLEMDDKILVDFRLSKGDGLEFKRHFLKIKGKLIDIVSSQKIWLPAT
Experimental: Kinase assays were performed as previously described.

[10] = test system: Colo205 xenografts; assay: Colo205 xenograft antitumor efficacy; type: in vivo; conditions: Colo205, 75 mg/kg IP irinotecan alone (V158411 0 mg/kg)
Description: (§2) Xenograft studies were undertaken by Charles River Laboratories Discovery Services, North Carolina. On the day of tumor cell implant, Colo205 cells were harvested and resuspended in 50% Matrigel matrix (BD Biosciences) in PBS at a concentration of 5 × 10^6 cells/mL. Each test mouse received 1 × 10^6 Colo205 cells implanted subcutaneously (SC) in the flank of female athymic nude mice (HRLN or NCr nu/nu), and tumor growth was monitored as the average size approached 100-150 mm^3. The SW620 tumor line was maintained by serial SC transplantation in female athymic nude mice (HRLN nu/nu). Tumor fragments, approximately 1 mm^3 each, were implanted SC into the right flank of each animal and allowed to grow towards a target size of 100-150 mm^3. On day 1 of the study, tumors were randomized into treatment groups before compound administration.
(§3) V158411 was formulated in D5W and administered via IV injection into the tail vein. Cyclic treatment regimens were followed and treatment ranged from 2-3 cycles.
(§4) Tumor size was measured with electronic calipers and tumor volume calculated according to the formula ((width × width) × length) /2.
(§5) The study endpoint was defined as a tumor volume of 750 mm^3 for Colo205 or 1500 mm^3 for SW620, or day 60, whichever came first. Each animal was euthanized when its' tumor reached this endpoint. The time to endpoint (TTE) for each mouse was calculated from the equation TTE = (log10(endpoint volume)-b)/m where b is the intercept and m the slope of the line obtained by linear regression of a log-transformed tumor growth data set.

[11] = test system: SW620 xenograft; assay: SW620 xenograft antitumor efficacy; conditions: for Median TTE: SW620, 100 mg/kg irinotecan alone (V158411 0 mg/kg); for %TGD / T-C: SW620, 100 mg/kg irinotecan alone
Description: as §2, §3, §4, §5

Row | SMILES | Fold Potentiation by V158411 (400nM) [1] [fold] | Fold Potentiation by V158411 (400nM) [2] [fold] | Fold Potentiation by V158411 (400nM) [3] [fold] | Fold Potentiation by V158411 (400nM) [4] [fold] | Fold Potentiation by V158411 (400nM) [5] [fold] | Fold Potentiation by V158411 (400nM) [6] [fold] | Fold Potentiation by V158411 (400nM) [7] [fold] | Fold Potentiation by V158411 (400nM) [8] [fold] | IC50 [9] [µM] | other results
1 | N.N.[Cl][Pt][Cl] [Cisplatin] | 0.8 | 5.3 | 0.7 | 0.6 | 10.1 | 1.9 | 1.7 | 2.5 |  | 
2 | O=C(Nc1cnn(Cc2ccccc2)c1)c1c[nH]c(=O)c(-c2cc3ccccc3[nH]2)c1 [VER-155422] |  |  |  |  |  |  |  |  | 0.017 | LE [9]: 0.35
3 | CCc1c2c(nc3ccc(OC(=O)N4CCC(N5CCCCC5)CC4)cc13)-c1cc3c(c(=O)n1C2)COC(=O)[C@]3(O)CC [Irinotecan, reference compound] |  |  |  |  |  |  |  |  |  | %TGD [10]: 78%; T-C [10]: 15.5; Median TTE ([10]; q7d 3 cycles, endpoint 750 mm^3): 35.4 days; Median TTE ([11]; study with 30 mg/kg V158411, endpoint 1500 mm^3): 24.1 days; Median TTE ([11]; study with 60 mg/kg V158411, endpoint 1500 mm^3): 24.1 days; %TGD ([11]; study with 30 mg/kg V158411): 81%; T-C ([11]; study with 30 mg/kg V158411): 10.8; %TGD ([11]; study with 60 mg/kg V158411): 75%; T-C ([11]; study with 60 mg/kg V158411): 10.3
4 | CC[C@@]1(O)C(=O)OCc2c1cc1n(c2=O)Cc2cc3ccccc3nc2-1 [Camptothecin] | 0.7 | 6.0 | 0.8 | 0.8 | 11.4 | 1.8 | 6.3 | 10.6 |  | 
5 | CCNC(=O)c1c[nH]c(=O)c(-c2cc3ccccc3[nH]2)c1 [VER-154931] |  |  |  |  |  |  |  |  | 4.2 | Chk1 IC50 [9]: low μM inhibitor
6 | O=C(Nc1c[nH]c(=O)c(-c2cc3ccccc3[nH]2)c1)c1cnn(Cc2ccccc2)c1 [VER-155991] |  |  |  |  |  |  |  |  | 0.0076 | increase in potency ([9]; Chk1 IC50, inversion of the amide linker, versus VER-155422): 2 fold
7 | CCc1c2c(nc3ccc(O)cc13)-c1cc3c(c(=O)n1C2)COC(=O)[C@]3(O)CC [SN38] |  | > 10 | 1.0 | 1.3 | 18.7 |  | > 10 | 7.6 |  | 
8 | Cn1cc(NC(=O)c2c[nH]c(=O)c(-c3cc4ccccc4[nH]3)c2)cn1 [VER-155175] |  |  |  |  |  |  |  |  | > 400 | Chk1 IC50 [9]: disappointing affinity
9 | O=c1[nH]cccc1-c1nc2ccccc2[nH]1 [VER-154637] |  |  |  |  |  |  |  |  | ~100 | LE [9]: > 0.30
10 | Nc1ccn([C@@H]2O[C@H](CO)[C@@H](O)C2(F)F)c(=O)n1 [Gemcitabine] | 4.5 | 8.4 | 4.5 | 1.5 | 27.1 | 8.9 | 6.7 | 3.0 |  | 
